SMILES strings stand for the structures.

The assay has as its target T1, MKNK2 (MNK2) (Homo sapiens, UniProt Q9HBH9).
T1 construct: purchased Thermo Fisher Scientific (Life Technologies) SelectScreen
Nature of the assay: SelectScreen LanthaScreen. The assay is classed as binding. Particulars: read-out: % displacement. The method in brief: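 SelectScreen broad panel; activity (Z'LYTE, Adapta) plus binding formats. ATP: Km app for CSF1R Z'LYTE; 10 for CAMK1 Adapta. Readout = % per kinase.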

T1 sequence (Q9HBH9 whole entry): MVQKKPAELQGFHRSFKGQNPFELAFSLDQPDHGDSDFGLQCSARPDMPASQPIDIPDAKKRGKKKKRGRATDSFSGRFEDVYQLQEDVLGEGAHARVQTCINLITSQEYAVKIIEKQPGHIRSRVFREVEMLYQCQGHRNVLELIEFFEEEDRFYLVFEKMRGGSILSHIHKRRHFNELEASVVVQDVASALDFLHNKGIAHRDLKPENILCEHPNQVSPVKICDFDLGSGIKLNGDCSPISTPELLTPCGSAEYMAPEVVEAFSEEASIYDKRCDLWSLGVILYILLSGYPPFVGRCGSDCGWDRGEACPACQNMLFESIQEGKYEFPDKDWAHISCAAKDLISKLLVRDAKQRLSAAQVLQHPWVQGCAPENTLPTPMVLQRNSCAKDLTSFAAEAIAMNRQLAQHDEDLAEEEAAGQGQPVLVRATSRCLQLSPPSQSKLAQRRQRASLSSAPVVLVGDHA

In the case of `CN(C(=O)CN1CCOCC1)c1ccc2sc3c(-c4cccc5c(=O)cc(N6CC7CCC(C6)O7)oc45)cccc3c2c1` [NU5455], the inhibition at 1 µM was 0.2%.
